Data on 16 compounds can be found in article PMC9879200, “Dual-target ligand discovery for Alzheimer’s disease: triphenylphosphoranylidene derivatives as inhibitors of acetylcholinesterase and β-amyloid aggregation” (Journal of Enzyme Inhibition and Medicinal Chemistry, 2023).

SMILES strings stand for the structures. Entries after “also recorded” stand apart in the source; their conditions may differ. Read-outs that look alike come from different tables or passages of the source.

The target in data set [1] is T1, AChE (Homo sapiens, UniProt P22303).
T1 construct: purchased Bioassays System (BioAssay Systems) IACE-100
T1 sequence (P22303 32-614): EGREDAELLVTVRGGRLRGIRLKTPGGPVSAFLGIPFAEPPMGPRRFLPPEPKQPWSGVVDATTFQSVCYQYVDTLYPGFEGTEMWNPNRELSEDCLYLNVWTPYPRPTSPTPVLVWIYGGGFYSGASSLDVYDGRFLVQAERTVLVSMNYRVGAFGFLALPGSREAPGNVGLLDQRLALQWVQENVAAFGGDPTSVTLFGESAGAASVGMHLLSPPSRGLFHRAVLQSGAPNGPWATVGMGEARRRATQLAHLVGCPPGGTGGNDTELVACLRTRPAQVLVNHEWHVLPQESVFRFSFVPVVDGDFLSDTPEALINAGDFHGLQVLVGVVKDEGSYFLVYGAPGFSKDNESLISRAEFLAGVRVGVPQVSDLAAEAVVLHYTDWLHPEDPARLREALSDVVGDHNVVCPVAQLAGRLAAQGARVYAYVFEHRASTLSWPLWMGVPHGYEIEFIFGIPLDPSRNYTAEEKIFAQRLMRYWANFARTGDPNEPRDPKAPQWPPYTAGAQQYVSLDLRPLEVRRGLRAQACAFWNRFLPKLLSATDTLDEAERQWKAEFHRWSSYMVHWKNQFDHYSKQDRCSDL
Kind of data set: In vitro AChE inhibition assay (improved Ellman spectrophotometric method). The data set is classed as biochemical. The text has this:
(§1) For AChE and BuChE inhibition experiments, Ellman et al. method’s was applied with a few minor adjustments. According to the manufacturer’s recommendations, the QuantiChromTM AChE Inhibitor Screening Kit (IACE-100), Bioassays System, and the Cholinesterase (ChE) Activity Assay Kit, LifeSpan BioSciences, Inc., USA, were used to measure the inhibition of AChE and BuChE, respectively. […] The relationship between product colour and enzyme activity after inhibition is established. Substrates included butyrylthiocholine iodide and acetylthiocholine iodide.
(DTNB colorimetry detects thiols as they appear.)

The test system of data set [2] is scopolamine-induced memory impairment in mice. Put plainly: Y-maze test, scopolamine-induced amnesia model. The format is in vivo.
Description: In order to test potential anticholinergic medication candidates, the in vivo scopolamine model was employed to cause memory impairment in mice. Scopolamine can inhibit the cholinergic system by antagonising the muscarinic receptor[47].
Animal working memory is assessed using the hippocampal-dependent Y-maze test. Working memory is measured using the spontaneous alternation score[48].
In the current investigation, adult Swiss Albino mice (8–10 weeks old, weighing 25–30 g) from the National Research Centre were employed. For 1 week, animals were acclimated in a room with constant illumination, humidity, and temperature (22 °C ± 1 °C, 60%, and 12 h of light/dark cycle). Throughout the experiment, unlimited amounts of food and water were given. Mice were kept in open, opaque propylene cages with good ventilation and wide access to a variety of forages.
(§4) Healthy mice were randomised into four groups of six mice each after a 1-week adaption period, at random, as follows: Group 1 is the control group, which received saline solution with 10% Tween 80. […] Following the injection of scopolamine, the behavioural study will be examined 30 min later.
In the Y-maze, a test of working memory, the animals’ capacity for spontaneous alternation was evaluated[49]. Three equally spaced horizontal arms measuring 120°, 45 cm long, and 16 cm high make up the Y-maze. Each mouse was put into one of the three arms of the maze and given free rein to wander from arm to arm. Both the number and order of arm inputs were recorded. The spontaneous alternation is derived from the following equation as a measure of memory performance: (Alternations/Total Arm Entries) − 2 × 100 = percent alternation. The student’s t-test was used to assess the data.
Data set [3] concerns scopolamine-induced cognitive impairment. Kind of data set: Step-down passive avoidance test, scopolamine-induced amnesia model. The note with it: mice; for transfer latency time (TLT), passive avoidance test: 1 mg/kg orally 30 min before scopolamine 3 mg/kg intraperitoneal. The data set is classed as in vivo.
Description: In order to test potential anticholinergic medication candidates, the in vivo scopolamine model was employed to cause memory impairment in mice.
For 1 week, animals were acclimated in a room with constant illumination, humidity, and temperature (22 °C ± 1 °C, 60%, and 12 h of light/dark cycle). Throughout the experiment, unlimited amounts of food and water were given. Mice were kept in open, opaque propylene cages with good ventilation and wide access to a variety of forages.
as §4
The passive avoidance test was conducted in a device that had two independent compartments split by a sliding door. There was a connection between the illuminated chamber and a dark compartment with an electrifiable grid floor, which was free of electric impulses. Each mouse was initially placed in the lit chamber so that it could become accustomed to it. The sliding door is then opened, allowing access to the enclosed, gloomy space. The door was shut once the animal had entered the chamber entirely, and it was then shocked with an electric shock lasting two seconds (24 V, 0.5 mA). The latency time to enter the dark container was measured to gauge working memory (Training trial). Twenty-four hours after the training trial, a test trial was carried out without application of the electric foot shock[50].
A further data set has as its target T2, Aβ1–42 (Homo sapiens, UniProt P05067).
T2 construct: the beta amyloid 1–42 (Aβ42) Ligand Screening Assay Kit (Fluorometric) (K570-100); purchased BioVision K570-100
Kind of data set: Self-induced Aβ1–42 aggregation inhibition assay (Thioflavin T, fluorometric). Conditions: Thioflavin T fluorescence; read-out: Self-induced Aβ1–42 aggregation IC50 (nM) ± SD. The data set is classed as biochemical.

In data set [4] the test system is AChE (IC50 in the denominator). Put plainly: SH-SY5Y neuroblastoma cell toxicity (MTT assay). Conditions: human, SH-SY5Y neuroblastoma cells. How it is done: (§2) The cell viability was determined through using MTT assay.
(§3) The American Type Culture Collection provided the cells (Rockville, MD). […] The chemical was applied to the cells at various doses ([…]) for 48 h. The MTT colorimetric assay’s described methodology was then used[57].
Background: Tetrazolium dyes change colour on reduction, which living cells bring about.

The nature of data set [5]: SH-SY5Y neuroblastoma cell toxicity (MTT assay). Conditions: human, SH-SY5Y neuroblastoma cells. As for the experimental part:
as §2, §3

The target in the next data set is T3, BuChE enzyme (Homo sapiens, UniProt P06276).
T3 construct: purchased LifeSpan BioSciences, Inc., USA
T3 sequence (P06276 29-602): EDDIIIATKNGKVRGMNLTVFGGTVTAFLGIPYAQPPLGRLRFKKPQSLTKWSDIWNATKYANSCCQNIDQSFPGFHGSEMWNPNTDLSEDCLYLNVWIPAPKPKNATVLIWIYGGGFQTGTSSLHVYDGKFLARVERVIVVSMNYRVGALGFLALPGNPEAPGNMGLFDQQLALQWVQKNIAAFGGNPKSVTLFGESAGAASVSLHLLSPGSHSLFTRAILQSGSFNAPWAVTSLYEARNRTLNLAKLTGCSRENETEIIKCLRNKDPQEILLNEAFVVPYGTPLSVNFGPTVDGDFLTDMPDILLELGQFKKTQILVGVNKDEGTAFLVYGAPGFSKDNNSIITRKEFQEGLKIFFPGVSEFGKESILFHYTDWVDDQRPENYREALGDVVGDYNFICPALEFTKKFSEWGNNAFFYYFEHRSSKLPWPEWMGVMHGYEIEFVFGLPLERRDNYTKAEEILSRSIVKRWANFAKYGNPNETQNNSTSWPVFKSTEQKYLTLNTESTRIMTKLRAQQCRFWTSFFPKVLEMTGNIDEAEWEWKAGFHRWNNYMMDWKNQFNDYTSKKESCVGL
Kind of data set: In vitro BuChE inhibition assay (modified Ellman spectrophotometric method). The format is biochemical. How it is done: This was carried out by using the modified Ellman spectrophotometric method.
as §1

In data set [6] the target is T1, AChE. Kind of data set: Kinetic study of AChE inhibition (Lineweaver-Burk and Dixon plots). The data set is classed as biochemical.
Description: Figure 5.
as §1

Another data set addresses T4, MMP-2 (Homo sapiens, UniProt P08253).
T4 construct: purchased Abcam ab139447
T4 sequence (P08253 110-660): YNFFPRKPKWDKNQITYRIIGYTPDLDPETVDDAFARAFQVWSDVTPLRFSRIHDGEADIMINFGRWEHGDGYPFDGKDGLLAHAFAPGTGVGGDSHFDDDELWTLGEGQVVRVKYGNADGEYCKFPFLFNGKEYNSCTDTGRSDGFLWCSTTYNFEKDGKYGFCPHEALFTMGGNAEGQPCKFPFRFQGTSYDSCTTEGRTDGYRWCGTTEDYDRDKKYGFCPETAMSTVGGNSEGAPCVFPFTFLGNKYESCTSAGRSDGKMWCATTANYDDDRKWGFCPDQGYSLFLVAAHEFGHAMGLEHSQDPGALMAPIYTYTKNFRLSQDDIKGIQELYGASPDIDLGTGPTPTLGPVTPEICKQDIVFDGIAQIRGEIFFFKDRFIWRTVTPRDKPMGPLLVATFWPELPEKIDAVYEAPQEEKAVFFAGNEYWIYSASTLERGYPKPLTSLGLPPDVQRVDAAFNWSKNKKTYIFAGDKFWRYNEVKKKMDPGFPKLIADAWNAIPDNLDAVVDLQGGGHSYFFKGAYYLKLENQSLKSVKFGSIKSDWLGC
Put plainly: MMP-2 inhibitor screening assay (fluorometric, FRET peptide). The data set is classed as biochemical. The text has this: Matrix Metalloproteinase-2 (MMP-2) is known for its impact on neurological disorders as AD[44–46].
This assay kit uses a fluorescence resonance energy transfer (FRET) peptide as a generic MMP activity indicator. In the intact FRET peptide, the fluorescence of one part is quenched by another. After cleavage into two separate fragments by MMPs, the fluorescence is recovered.

Where [7] appears, read: read-out: AChE IC50 (nM) ± SD, average of triplicate determination, Ellman method, pH 7.5.

T2 sequence (P05067 672-713 limits assumed): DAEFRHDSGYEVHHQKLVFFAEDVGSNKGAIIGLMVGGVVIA

Consider `C[Si](C)(C)c1c([Si](C)(C)C)c(=P(c2ccccc2)(c2ccccc2)c2ccccc2)c1=O` [C00010], for which the half-maximal inhibitory concentration (IC50) (as a rule, the concentration that inhibits the measured activity by half) on AChE [1] (setting [7]) came out at 113 ± 4.82 nM.
For the compound `C=CC(C(=O)OC)=P(c1ccccc1)(c1ccccc1)c1ccccc1` [8b, Methyl 2-(triphenylphosphoranylidene)but-3-enoate], it took 158 nM to reach half-maximal inhibition on AChE [1] (IC50).
Turning to `CN1[C@@H]2C[C@@H](OC(=O)[C@H](CO)c3ccccc3)C[C@H]1[C@@H]1O[C@@H]12` [Scopolamine], the “Y-maze test, percent alternations, scopolamine model group” value in [2] (mice, scopolamine 3 mg/kg intraperitoneal alone, control group 82.1) is given as 51.2%. Besides, the “transfer latency time (TLT), passive avoidance test, scopolamine-treated group” value in data set [3] (scopolamine 3 mg/kg intraperitoneal alone) came out at 27.2 s.
On to `c1ccc(/N=c2/c(-c3ccccc3)c(-c3ccccc3)c2=P(c2ccccc2)(c2ccccc2)c2ccccc2)cc1` [C00002], for which, at AChE [1], 185 ± 9.22 nM corresponded to half-maximal inhibition (IC50).
At AChE [1], `CCc1c(CC)/c(=N/c2ccccc2)c1=P(c1ccccc1)(c1ccccc1)c1ccccc1` [C00006] yielded a half-inhibitory concentration (IC50) of 507 ± 22.1 nM.
As for `CCc1c(CC)c(=P(c2ccccc2)(c2ccccc2)c2ccccc2)c1=O` [13b, 2,3-Diethyl-4-(triphenylphosphoranylidene)cyclobut-2-enone], the IC50 on AChE [1] was 249 nM.
Regarding `COc1cc2c(cc1OC)C(=O)C(CC1CCN(Cc3ccccc3)CC1)C2` (stereo not shown) [Donepezil], in data set [2] (1 mg/kg), the “Y-maze test, percent alternations” value worked out at 80.7%. For the same compound, the “transfer latency time (TLT), passive avoidance test” value in [3] worked out at 44.0 s.
As for `c1ccc(N=c2c(-c3ccccc3)c(-c3ccccc3)c2=P(c2ccccc2)(c2ccccc2)c2ccccc2)cc1` [11a, N-(2,3-diphenyl-4-(triphenylphosphoranylidene)cyclobut-2-en-1-ylidene)aniline], 185 nM corresponded to half-maximal inhibition on AChE [1] (IC50).
On AChE [1], `C[Si]1(Cl)C=C/C(=N\c2ccccc2)C1=P(c1ccccc1)(c1ccccc1)c1ccccc1` (stereo not shown) [C00001] returned an IC50 of 206 ± 7.33 nM.
Still for that read-out and setting: for `O=c1c(-c2ccccc2)c(-c2ccccc2)c1=P(c1ccccc1)(c1ccccc1)c1ccccc1` [11b, 2,3-Diphenyl-4-(triphenylphosphoranylidene)cyclobut-2-enone] the value was 508 nM.
At AChE [1], `C[Si]1(Cl)C=CC(=Nc2ccccc2)C1=P(c1ccccc1)(c1ccccc1)c1ccccc1` (stereo not shown) [5a, N-(1-chloro-1-methyl-2-(triphenylphosphoranylidene)-1H-silol-3(2H)-ylidene)aniline] registered an IC50 of 206 nM.
The compound `C[Si](C)(C)c1c([Si](C)(C)C)c(=P(c2ccccc2)(c2ccccc2)c2ccccc2)c1=O` [compound 15, 2,3-Bis(trimethylsilyl)-4-(triphenylphosphoranylidene)cyclobut-2-enone] came in with a concentration for half-maximal inhibition (IC50) against AChE [1] of 113 nM.
Consider `CCc1c(CC)c(=P(c2ccccc2)(c2ccccc2)c2ccccc2)c1=O` [C00008], for which the IC50 at AChE [1] (setting [7]) amounted to 249 ± 10.4 nM.
In the case of `C=CC(C(C)=O)=P(c1ccccc1)(c1ccccc1)c1ccccc1` [8c, 3-(Triphenylphosphoranylidene)pent-4-en-2-one], the IC50 came to 302 ± 11.4 nM on Aβ1–42, 0.0848 ± 0.00291 µM against BuChE enzyme, 97 nM at AChE [1] and 0.724 ± 0.0165 µM at MMP-2. Also, the selectivity ratio at 48 h in [4] worked out at 75.3. In data set [5], the CC50 (commonly the concentration giving 50% cytotoxicity) at 48 h was 7.31 ± 0.26 µM. Besides, the Selectivity index on BuChE enzyme (Selectivity index = (BuChE IC50)/(AChE IC50)) is 0.87. The “Y-maze test, percent alternations” value in data set [2] (mice, 1 mg/kg orally 30 min before scopolamine 3 mg/kg intraperitoneal) is recorded as 83.9%. The “type of AChE inhibition” value on AChE [6] (Lineweaver-Burk plot, Vmax and Km patterns) is given as “uncompetitively; also recorded: uncompetitive”. Further, the inhibitory constant (Ki) (as a rule, a dissociation constant, usually derived from enzyme kinetics or from competition with a known ligand) on AChE [6] (estimate from Dixon plot, read-out: inhibitory constant, Ki) was 0.0157 µM. In [3], the “transfer latency time (TLT), passive avoidance test” value stood at 45.2 s.
On AChE [1], `C[Si]1(Cl)C=CC(=O)C1=P(c1ccccc1)(c1ccccc1)c1ccccc1` (stereo not shown) [5b, 1-Chloro-1-methyl-2-(triphenylphosphoranylidene)-1H-silol-3(2H)-one] came in with a concentration for half-maximal inhibition (IC50) of 345 nM.
At AChE [1], `C=CC(C(=O)c1ccccc1)=P(c1ccccc1)(c1ccccc1)c1ccccc1` [8d, 1-Phenyl-2-(triphenylphosphoranylidene)but-3-en-1-one] returned an IC50 of 426 nM.
